pIC50: −log10 of the molar value.

Sequence of Ribose-phosphate pyrophosphokinase (Escherichia coli) (P0A717 whole entry, looked up): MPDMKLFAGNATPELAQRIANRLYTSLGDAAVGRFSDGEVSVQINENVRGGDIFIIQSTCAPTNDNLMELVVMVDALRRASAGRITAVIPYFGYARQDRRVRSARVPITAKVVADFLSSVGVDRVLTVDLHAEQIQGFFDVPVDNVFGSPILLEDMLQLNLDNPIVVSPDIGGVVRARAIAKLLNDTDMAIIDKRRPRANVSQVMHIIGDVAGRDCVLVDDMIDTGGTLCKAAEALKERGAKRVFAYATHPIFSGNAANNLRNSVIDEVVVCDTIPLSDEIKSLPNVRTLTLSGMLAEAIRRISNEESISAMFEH

The assay addresses Ribose-phosphate pyrophosphokinase (Escherichia coli) (UniProt P0A717). The assay can be described thus: Inhibitory concentration against Escherichia coli Pyrophosphate Synthetase (PRPP).
Usually pIC50 stands for the negative decadic logarithm of the IC50, by convention in mol/L. A lower pIC50 goes with a high IC50. Regarding `Nc1ncnc2c1ncn2CCOCP(=O)(O)O` [9-[2-phosphonomethoxyethyl]adenine], the pIC50 was 2.49.
As for `Nc1ncnc2c1ncn2[C@@H]1O[C@H](COP(=O)(O)O)[C@H](O)[C@@H]1O` [Phosphoric acid mono-[(2R,3R,4S,5R)-5-(6-amino-purin-9-yl)-3,4-dihydroxy-tetrahydro-furan-2-ylmethyl] ester], the figure is 2.29; as for `Nc1ncnc2c1ncn2[C@H]1CC[C@@H](CCOP(=O)(O)O)C1` [Phosphoric acid mono-{2-[(1R,3S)-3-(6-amino-purin-9-yl)-cyclopentyl]-ethyl} ester], 3.22.
To `Nc1ncnc2c1ncn2[C@H]1CC[C@@H](CC(F)(F)P(=O)(O)O)C1` [{2-[(1R,3S)-3-(6-Amino-purin-9-yl)-cyclopentyl]-1,1-difluoro-ethyl}-phosphonic acid] belongs 3.00.

The values are drawn from BindingDB's records for doi:10.1016/S0960-894X(00)80413-8 (1992).
